Laboratory results published in patent US20230146455A1, “TREATMENT OF INFLAMMATORY DISEASES WITH PEPTIDES AND PHARMACEUTICAL COMPOSITIONS” (Yuyu Pharma, Inc., priority 2020, published 2023).
Several values for one entry are separate records, joined by “and”; a condition that tells them apart may be missing. Identical values can stand only once. Where a SMILES comes first, the peptide text is derived from it. [ ]: non-standard residue; d: D form. Hyp = O=C(O)[C@@H]1C[C@@H](O)CN1

Tested on: IL-6
Test: Example 9 Luminex, LPS hPBMCs: IL-6
Assay type: cell-based, human
Details: Bead IL-6
Description: Treatment Human PBMCs were pretreated with YY-101, YDE-011 and YDE-043 or reference compound; Xiidra® at various concentration (ranging from 1 nM to 100 uM) for 2 h before stimulation. An equal volume of 0.5% DMSO was used as a vehicle control. Then, the cells were treated with LPS at 5 ug/ml. The supernatants from treated cells were harvested at 24 h and placed in a 96 well for Luminex cytokine & chemokine profiling using a Luminex 200 multiplex assay (Luminex; R&D system, USA).
The main study arm with triplicate wells per group in a 24-well plate: • 1. Blank • 2. PBMC: 0.5% DMSO • 3. PBMC+LPS (5 ug/ml) • 4. PBMC+YY-101 100 uM • 5. PBMC+YY-101 10 uM • 6. PBMC+YY-101 1 uM • 7. PBMC+YY-101 0.1 uM • 8. PBMC+YY-101 0.01 uM • 9. PBMC+LPS (5 ug/ml)+Xiidra®100 uM • 10. PBMC+LPS (5 ug/ml)+Xiidra® 10 uM • 11. PBMC+LPS (5 ug/ml)+Xiidra® 1 uM • 12. PBMC+LPS (5 ug/ml)+Xiidra®0.1 uM • 13. PBMC+LPS (5 ug/ml)+Xiidra®0.01 uM • 14. PBMC+LPS (5 ug/ml)+Xiidra®0.001 uM • 15. PBMC+LPS (5 ug/ml)+YY-101 100 uM • 16. PBMC+LPS (5 ug/ml)+YY-101 10 uM • 17. PBMC+LPS (5 ug/ml)+YY-101 1 uM • 18. PBMC+LPS (5 ug/ml)+YY-101 0.1 uM • 19. PBMC+LPS (5 ug/ml)+YY-101 0.01 uM • 20. PBMC+LPS (5 ug/ml)+YY-101 0.001 uM • 21. PBMC+LPS (5 ug/ml)+YDE-011 100 uM • 22. PBMC+LPS (5 ug/ml)+YDE-011 10 uM • 23. PBMC+LPS (5 ug/ml)+YDE-011 1 uM • 24. PBMC+LPS (5 ug/ml)+YDE-011 0.1 uM • 25. PBMC+LPS (5 ug/ml)+YDE-011 0.01 uM • 26. PBMC+LPS (5 ug/ml)+YDE-011 0.001 uM • 27. PBMC+LPS (5 ug/ml)+YDE-043 100 uM • 28. PBMC+LPS (5 ug/ml)+YDE-043 10 uM • 29. PBMC+LPS (5 ug/ml)+YDE-043 1 uM • 30. PBMC+LPS (5 ug/ml)+YDE-043 0.1 uM • 31. PBMC+LPS (5 ug/ml)+YDE-043 0.01 uM • 32. PBMC+LPS (5 ug/ml)+YDE-043 0.001 uM
Multiplex assay was used to measure 30 cytokines and chemokines. The 1:2, 1:10 and 1:200 diluted cell supernatant and serial dilution of the standard were dispensed into a 96 well plate at 50 ul/well. Then, the pre-mixed cocktail of antibody-coated magnetic beads was dispensed at 50 ul/well and incubated at room temperature for 2 h in a horizontal orbital microplate shaker at 800±500 rpm. The beads were washed using a magnetic device to prevent loss. The biotin-antibody was dispensed in 50 ul of each well and incubated at room temperature for 1 h in a shaker at 800±500 rpm. After washing, streptavidin-PE was added at 50 ul/well and incubated at room temperature for 30 min in a shaker under the same conditions. Finally, after washing, wash buffer (100 ul/well) was added to the plate and incubated in a shaker for 2 min. The Luminex™ 200 setting were set according to the manufacturer's protocol. The data was calculated with a standard five-parameter logistic nonlinear regression analysis of the data (xPonent software 4.2, USA). The levels of cytokine/chemokine are normalized to the live cell counts (1×10^5 cells/mL) and presented as concentrations per mL (pg/mL or ng/mL).

[1] = PBMC + LPS(5 ug/ml), 0.001 uM, Mean
[2] = PBMC + LPS(5 ug/ml), 0.001 uM, single replicates
[3] = PBMC + LPS(5 ug/ml), 0.01 uM, Mean
[4] = PBMC + LPS(5 ug/ml), 0.01 uM, single replicates
[5] = PBMC + LPS(5 ug/ml), 0.1 uM, Mean
[6] = PBMC + LPS(5 ug/ml), 0.1 uM, single replicates
[7] = PBMC + LPS(5 ug/ml), 1 uM, Mean
[8] = PBMC + LPS(5 ug/ml), 1 uM, single replicates
[9] = PBMC + LPS(5 ug/ml), 10 uM, Mean
[10] = PBMC + LPS(5 ug/ml), 10 uM, single replicates
[11] = PBMC + LPS(5 ug/ml), 100 uM, Mean
[12] = PBMC + LPS(5 ug/ml), 100 uM, single replicates
[13] = PBMC without LPS, 0.01 uM, Mean
[14] = PBMC without LPS, 0.01 uM, single replicates
[15] = PBMC without LPS, 0.1 uM, single replicates
[16] = PBMC without LPS, 1 uM, single replicates

## CC(C)C[C@H](NC(=O)CNC(=O)[C@H](CC(=O)O)NC(=O)[C@H](CCC(N)=O)NC(=O)CNC(=O)[C@@H]1C[C@@H](O)CN1)C(=O)N[C@@H](C)C(=O)NCC(=O)N1CCC[C@H]1C(=O)N[C@@H](CCCCN)C(=O)O [YY-101] (H-[Hyp]GQDGLAGPK-OH; N-terminus and C-terminus assumed)
[1]
  Concentration: 12498.5 pg/mL
  MFI: 355.4
  conc/live cell: 1952.7 pg/10^5
[2]
  Concentration: 13037.8 pg/mL and 12646.1 pg/mL and 11811.7 pg/mL
  MFI: 371.3 and 359.8 and 335.3
  conc/live cell: 2287.3 pg/10^5 and 1781.1 pg/10^5 and 1789.6 pg/10^5
[3]
  Concentration: 13304.7 pg/mL
  MFI: 379.1
  conc/live cell: 2159.4 pg/10^5
[4]
  Concentration: 13276.3 pg/mL and 13531.9 pg/mL and 13106.0 pg/mL
  MFI: 378.3 and 385.8 and 373.3
  conc/live cell: 2074.4 pg/10^5 and 2255.3 pg/10^5 and 2148.5 pg/10^5
[5]
  Concentration: 12816.4 pg/mL
  MFI: 364.8
  conc/live cell: 2203.2 pg/10^5
[6]
  Concentration: 12441.7 pg/mL and 13157.1 pg/mL and 12850.5 pg/mL
  MFI: 353.8 and 374.8 and 365.8
  conc/live cell: 2006.7 pg/10^5 and 2530.2 pg/10^5 and 2072.7 pg/10^5
[7]
  Concentration: 13020.8 pg/mL
  MFI: 370.8
  conc/live cell: 2001.1 pg/10^5
[8]
  Concentration: 13242.2 pg/mL and 12867.5 pg/mL and 12952.6 pg/mL
  MFI: 377.3 and 366.3 and 368.8
  conc/live cell: 2101.9 pg/10^5 and 1812.3 pg/10^5 and 2089.1 pg/10^5
[9]
  Concentration: 14020.8 pg/mL
  MFI: 400.1
  conc/live cell: 2132.1 pg/10^5
[10]
  Concentration: 13975.0 pg/mL and 15049.6 pg/mL and 13037.8 pg/mL
  MFI: 398.8 and 430.3 and 371.3
  conc/live cell: 2329.2 pg/10^5 and 2351.5 pg/10^5 and 1715.5 pg/10^5
[11]
  Concentration: 15533.5 pg/mL
  MFI: 444.4
  conc/live cell: 2685.2 pg/10^5
[12]
  Concentration: 16142.7 pg/mL and 15459.3 pg/mL and 14998.4 pg/mL
  MFI: 462.3 and 442.3 and 428.8
  conc/live cell: 2562.3 pg/10^5 and 2493.4 pg/10^5 and 2999.7 pg/10^5
[13]
  MFI: 3.3
  conc/live cell: 0.0 pg/10^5
[14]
  MFI: 4.3 and 2.3
  conc/live cell: 0.0 pg/10^5
PBMC without LPS, 0.1 uM, Mean
  MFI: 1.3
  conc/live cell: 0.0 pg/10^5
[15]
  MFI: 1.3
  conc/live cell: 0.0 pg/10^5
PBMC without LPS, 1 uM, Mean
  MFI: 1.8
  conc/live cell: 0.0 pg/10^5
[16]
  MFI: 2.3 and 1.3
  conc/live cell: 0.0 pg/10^5
PBMC without LPS, 10 uM, Mean
  Concentration: 880.7 pg/mL
  MFI: 15.3
  conc/live cell: 68.8 pg/10^5
PBMC without LPS, 10 uM, single replicates
  Concentration: 880.7 pg/mL
